Results: patent publication US20250223268A1, “4-Methylsulfonylbenzamide Compound, Preparation Method, Herbicidal Composition And Use” (Jiangsu Flag Chemical Industry Co., Ltd., priority 2022, published 2025)

What was measured:
Assay in all cases: Greenhouse herbicidal activity assay, post-emergence
Format in all cases: in vivo
Conditions in all cases: Post-emergence test, rate 150 g a.i./hm^2, grade by fresh weight inhibition rate
Eclipta prostrata = tested on: Eclipta prostrata
Summary of the method: (§1)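 Weeds and crops grown in pots of nutrient soil in a growth chamber to the 3-6 leaf stage, then foliar-sprayed and air-dried. Fresh weight inhibition scored 14-21 days after treatment and graded A (≥80%) through E (<20%).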

Echinochloa crusgalli = tested on: Echinochloa crusgalli
Summary of the method: as §1

Leptochloa chinensis = tested on: Leptochloa chinensis
Summary of the method: as §1

Digitaria sanguinalis = tested on: Digitaria sanguinalis
Summary of the method: as §1

Cyperus iria = tested on: Cyperus iria
Summary of the method: as §1

Compound | Control efficacy grade, Eclipta prostrata (Eclipta prostrata) | Control efficacy grade, Echinochloa crusgalli (Echinochloa crusgalli) | Control efficacy grade, Leptochloa chinensis (Leptochloa chinensis) | Control efficacy grade, Digitaria sanguinalis (Digitaria sanguinalis) | Control efficacy grade, Cyperus iria (Cyperus iria) | pest or weed control at 150 g/ha (Cyperus iria; Cyperus iria, read-out: Control efficacy grade, Cyperus iria) [%] | pest or weed control at 150 g/ha (Eclipta prostrata; Eclipta prostrata, read-out: Control efficacy grade, Eclipta prostrata) [%] | pest or weed control at 150 g/ha (Echinochloa crusgalli; Echinochloa crus-galli, read-out: Control efficacy grade, Echinochloa crusgalli) [%] | pest or weed control at 150 g/ha (Leptochloa chinensis; Dinebra chinensis, read-out: Control efficacy grade, Leptochloa chinensis) [%] | pest or weed control at 150 g/ha (Digitaria sanguinalis; Digitaria sanguinalis, read-out: Control efficacy grade, Digitaria sanguinalis) [%]
CCC(C)[S+]([O-])c1c(S(C)(=O)=O)ccc(C(=O)Nc2nnnn2C)c1Cl (mixture of isomers) [Compound 1-19] | A (Fresh weight inhibition rate≥80% to 100%) | A (Fresh weight inhibition rate≥80% to 100%) | A (Fresh weight inhibition rate≥80% to 100%) | A (Fresh weight inhibition rate≥80% to 100%) | – | – | – | – | – | –
CCC(C)[S+]([O-])c1c(S(C)(=O)=O)ccc(C(=O)Nc2ncnn2C)c1Cl (mixture of isomers) [Compound 2-19] | A (Fresh weight inhibition rate≥80% to 100%) | A (Fresh weight inhibition rate≥80% to 100%) | A (Fresh weight inhibition rate≥80% to 100%) | A (Fresh weight inhibition rate≥80% to 100%) | A (Fresh weight inhibition rate≥80% to 100%) | – | – | – | – | –
CCC(C)[S+]([O-])c1c(S(C)(=O)=O)ccc(C(=O)Nc2nnc(C)o2)c1Cl (mixture of isomers) [Compound 3-19] | A (Fresh weight inhibition rate≥80% to 100%) | A (Fresh weight inhibition rate≥80% to 100%) | A (Fresh weight inhibition rate≥80% to 100%) | A (Fresh weight inhibition rate≥80% to 100%) | A (Fresh weight inhibition rate≥80% to 100%) | – | – | – | – | –
CCC(C)[S+]([O-])c1c(S(C)(=O)=O)ccc(C(=O)Nc2nnco2)c1Cl (mixture of isomers) [Compound 3-285] | A (Fresh weight inhibition rate≥80% to 100%) | A (Fresh weight inhibition rate≥80% to 100%) | A (Fresh weight inhibition rate≥80% to 100%) | A (Fresh weight inhibition rate≥80% to 100%) | A (Fresh weight inhibition rate≥80% to 100%) | – | – | – | – | –
CCc1nnc(NC(=O)c2ccc(S(C)(=O)=O)c([S+]([O-])C(C)CC)c2Cl)o1 (mixture of isomers) [Compound 3-401] | A (Fresh weight inhibition rate≥80% to 100%) | A (Fresh weight inhibition rate≥80% to 100%) | A (Fresh weight inhibition rate≥80% to 100%) | A (Fresh weight inhibition rate≥80% to 100%) | A (Fresh weight inhibition rate≥80% to 100%) | – | – | – | – | –
CCC(C)[S+]([O-])c1c(S(C)(=O)=O)ccc(C(=O)Nc2nnc(C3CC3)o2)c1Cl (mixture of isomers) [Compound 3-633] | A (Fresh weight inhibition rate≥80% to 100%) | A (Fresh weight inhibition rate≥80% to 100%) | A (Fresh weight inhibition rate≥80% to 100%) | A (Fresh weight inhibition rate≥80% to 100%) | A (Fresh weight inhibition rate≥80% to 100%) | – | – | – | – | –
CCC[S+]([O-])c1c(S(C)(=O)=O)ccc(C(=O)Nc2nnnn2C)c1Cl (racemic) [Compound 1-2, 2-chloro-N-(1-methyl-1H-tetrazol-5-yl)-4-(methylsulfonyl)-3-(propylsulfinyl)benzamide] | – | – | – | – | – | 80 to 100 | 80 to 100 | 80 to 100 | 80 to 100 | 80 to 100
CC(C)[S+]([O-])c1c(S(C)(=O)=O)ccc(C(=O)Nc2nnnn2C)c1Cl (racemic) [Compound 1-7] | A (Fresh weight inhibition rate≥80% to 100%) | A (Fresh weight inhibition rate≥80% to 100%) | A (Fresh weight inhibition rate≥80% to 100%) | A (Fresh weight inhibition rate≥80% to 100%) | A (Fresh weight inhibition rate≥80% to 100%) | – | – | – | – | –
CCCC[S+]([O-])c1c(S(C)(=O)=O)ccc(C(=O)Nc2nnnn2C)c1Cl (racemic) [Compound 1-12] | A (Fresh weight inhibition rate≥80% to 100%) | A (Fresh weight inhibition rate≥80% to 100%) | A (Fresh weight inhibition rate≥80% to 100%) | A (Fresh weight inhibition rate≥80% to 100%) | A (Fresh weight inhibition rate≥80% to 100%) | – | – | – | – | –
Cn1nnnc1NC(=O)c1ccc(S(C)(=O)=O)c([S+]([O-])CC2CC2)c1Cl (racemic) [Compound 1-28] | A (Fresh weight inhibition rate≥80% to 100%) | A (Fresh weight inhibition rate≥80% to 100%) | A (Fresh weight inhibition rate≥80% to 100%) | A (Fresh weight inhibition rate≥80% to 100%) | A (Fresh weight inhibition rate≥80% to 100%) | – | – | – | – | –
Cn1nnnc1NC(=O)c1ccc(S(C)(=O)=O)c([S+]([O-])C2CC2)c1Cl (racemic) [Compound 1-33] | A (Fresh weight inhibition rate≥80% to 100%) | A (Fresh weight inhibition rate≥80% to 100%) | A (Fresh weight inhibition rate≥80% to 100%) | A (Fresh weight inhibition rate≥80% to 100%) | A (Fresh weight inhibition rate≥80% to 100%) | – | – | – | – | –
Cn1nnnc1NC(=O)c1ccc(S(C)(=O)=O)c([S+]([O-])C2CCC2)c1Cl (racemic) [Compound 1-38] | A (Fresh weight inhibition rate≥80% to 100%) | A (Fresh weight inhibition rate≥80% to 100%) | B (Fresh weight inhibition rate≥260% to <80%) | A (Fresh weight inhibition rate≥80% to 100%) | A (Fresh weight inhibition rate≥80% to 100%) | – | – | – | – | –
Cn1nnnc1NC(=O)c1ccc(S(C)(=O)=O)c([S+]([O-])C2CCCCC2)c1Cl (racemic) [Compound 1-48] | A (Fresh weight inhibition rate≥80% to 100%) | A (Fresh weight inhibition rate≥80% to 100%) | A (Fresh weight inhibition rate≥80% to 100%) | A (Fresh weight inhibition rate≥80% to 100%) | A (Fresh weight inhibition rate≥80% to 100%) | – | – | – | – | –
Cn1nnnc1NC(=O)c1ccc(S(C)(=O)=O)c([S+]([O-])CC(F)F)c1Cl (racemic) [Compound 1-58] | A (Fresh weight inhibition rate≥80% to 100%) | A (Fresh weight inhibition rate≥80% to 100%) | A (Fresh weight inhibition rate≥80% to 100%) | A (Fresh weight inhibition rate≥80% to 100%) | B (Fresh weight inhibition rate≥260% to <80%) | – | – | – | – | –
Cc1nonc1NC(=O)c1ccc(S(C)(=O)=O)c([S+]([O-])C(C)C)c1Cl (racemic) [Compound 4-7] | A (Fresh weight inhibition rate≥80% to 100%) | A (Fresh weight inhibition rate≥80% to 100%) | A (Fresh weight inhibition rate≥80% to 100%) | B (Fresh weight inhibition rate≥260% to <80%) | – | – | – | – | – | –
Cn1ncnc1NC(=O)c1ccc(S(C)(=O)=O)c(SC2CC2)c1Cl [Compound 2-32] | A (Fresh weight inhibition rate≥80% to 100%) | A (Fresh weight inhibition rate≥80% to 100%) | A (Fresh weight inhibition rate≥80% to 100%) | A (Fresh weight inhibition rate≥80% to 100%) | – | – | – | – | – | –
